In brackets after ≈: the same amount, converted by molar mass.
Experiments:
[1] = tested on: S. aureus ATCC 10390; assay: Estimated MIC, solution-phase microdilution absorbance assay with crude macroarray spot stock solutions; assay type: cell-based, Staphylococcus aureus; settings: for MIC: Staphylococcus aureus, ATCC10390, 12 h
Protocol: Spots from a new 69 member chalcone macroarray as well as the three heterocyclic macroarrays prepared earlier were punched out, cleaved, and eluted with acetonitrile. The resulting solutions were concentrated to a residue that was taken up in DMSO to form 2 mM stock solutions.
From the stock solutions, microdilution assays in a 96 well plate starting at 50 μM were performed in quadruplicate. Each well contained 5 μL of the stock solution as well as 195 μL of a S. aureus culture. The turbidity of each well was measured after incubating 12 hours using a standard plate reader. Active compounds can be further diluted and the assay repeated.
To acquire more quantitative antibacterial activity data about our compounds and verify our on-support assay results, we performed solution-phase absorbance assays that provided estimates of the minimum inhibitory concentration (MIC) of each macroarray member against S. aureus. Stock solutions (ca. 2 mM) were generated by cleaving and eluting 198 individual compounds from chalcone (3) and heterocyclic macroarrays (5, 7, and 8). […] The good overall purities of the crude macroarray compounds allowed for reasonable estimations of MICs.
(§1) For estimated MIC determination, DMSO was added to the dried compound residue obtained from a single spot to afford ca. 100 μL of a 2 mM stock solution. Aliquots (5 μL) of these solutions were added to a 96-well plate, followed by 195 μL of diluted S. aureus 10390 (10^6 CFUs/mL) to yield ca. 50 μM final concentrations. The plates were swirled for 1 h to ensure compound dissolution, incubated for 12 h at 37° C., and the absorbance at 595 nm was recorded using a plate reader. […] Actual MIC values were determined for lead compounds resynthesized in solution using an analogous procedure with solutions of known concentration (see).
Preparation of spot samples and controls. An aliquot of DMSO (ca. 100 μL depending on the loading of the parent hydroxyacetophenone) was added to the dried compound residue obtained after TFA cleavage and elution from a single spot. This afforded a 2.0 mM “spot stock” solution for each spot. A small aliquot of each “spot stock” solution was saved for subsequent LC-MS analysis.
For estimated MIC screens, 5.0 μL portions of the “spot stock” solutions were added to the appropriate wells in a sterile, polystyrene 96-well plate to yield ca. 50 μM solutions (dependent on the initial loading of hydroxyacetopheneone and compound purity). To the positive and negative control wells, 5.0 μL of DMSO were added (positive controls contained bacteria but no compound, while negative controls had neither compound nor bacteria). All estimated MIC assays were performed in quadruplicate. Note: the MIC value is defined as the lowest concentration where no bacterial growth occurs.
Representative estimated MIC assay procedure. This assay procedure is based in part on the method reported by Strøm et al.^xiii A 400 μL portion of overnight S. aureus 10390 culture was diluted with 100 mL of sterile LB broth to give ca. 10^6 CFUs per mL. Aliquots (195 μL) of this solution were added to all of the wells in a sterile 96-well plate (except for the negative control wells; 195 μL of sterile LB broth were added to these wells). The plates were placed on an orbital shaker table and gently swirled for 1 h to ensure compound dissolution, and then incubated (without shaking) for 12 h at 37° C. The absorbance at 595 nm was recorded using a plate reader.
The original “spot stock” solutions of these compounds were diluted with DMSO to give ca. 25 and 13 μM final concentrations and tested for inhibitory activities using the procedure described above.

[2] = tested on: S. aureus ATCC 10390; assay: Kirby-Bauer disk diffusion assay on compound spots from cleaved macroarray; assay type: cell-based, Staphylococcus aureus; settings: loadings 30 μg/spot, 18 h incubation
Protocol: While the heterocyclic libraries were being synthesized, the chalcone macroarrays were analyzed using various direct assay techniques such as the Kirby-Bauer disk diffusion assay (FIG. 2E). Bauer, A. W.; Kirby, […].; Turck, M. Technical Bulletin of the Registry of Medical Technologists 1966, 36, 49-52. For this assay, the macroarray members are punched out from the membrane, cleaved from the support with TFA vapor, neutralized with ammonia vapor, and then placed on an agar bed inoculated with S. aureus. After incubating overnight, different diameters of zones of inhibition are measured as a factor of potency as well as solubility in the medium. Ammonia vapor neutralization was key in the disk diffusion assay, otherwise residual TFA vapor created a false positive signature. However, in this method, macroarrays have to be made in triplicate one for a replicate and one for compound characterization. We first evaluated test chalcone macroarrays (3) in antibacterial assays against S. aureus. Because the macroarrays were prepared on cellulose filter paper, we had convenient access to the compounds in disk form for standard disk diffusion assays. Compound spots were punched out of the macroarrays, subjected to vapor phase cleavage with acid (TFA), and neutralized (NH3) to afford disks containing ca. 30 μg of adsorbed compound [8]. These disks were manually placed on lawns of S. aureus, and zones of inhibition were measured after an 18 h incubation period. […] However, this antibacterial assay format had drawbacks: (1) the entire sample of compound was consumed during the assay, and thus replicate arrays needed to be synthesized to confirm activity, and (2) manipulating large numbers of compound disks was relatively labor intensive. Compound spots were cleaved with TFA and neutralized with NH3 as described herein. […] Compound spots were placed onto the agar, the plate was incubated at 37° C. for 18 h, and the diameters of the zones of inhibition were measured. […] Compound spots were subjected to the TFA cleavage conditions described above. The spots were next subjected to NH3 vapor to neutralize any remaining TFA. […] Vials containing the spots (or intact macroarrays) were placed inside a small evaporating dish, and this was placed into the NH4OH solution. The Pyrex dish was covered, and NH3 vapor was allowed to slowly diffuse into the vials. After 1 h, the vials were removed from the NH3 chamber, and the spots were allowed to stand open in a fume hood for at least 15 min to vent prior to analysis in the following assays. This afforded dry, paper disks containing adsorbed compound. […] The plates were removed, and the diameters of the zones of inhibition were measured in mm using a ruler (see FIG. 1A).

[3] = tested on: S. epidermidis ATCC 12228; assay: MIC determination, species selectivity; assay type: cell-based; settings: Staphylococcus epidermidis, ATCC12228; authentic sample, only trans isomers of chalcones; error reflects step size
Protocol: (§2) Each compound from Table 3 was tested for inhibitory activity at 2.5, 5, 7.5, 10, 15, 20, 25, and 30 μM in the susceptible overlaid strains: B. subtilis ATCC 6633, S. epidermidis ATCC 12228, and K. pneumoniae ATCC 4352. MIC assays were run in quadruplicate as described above (with shaking).

[4] = tested on: B. subtilis subsp. spizizenii ATCC 6633; assay: MIC determination, species selectivity; assay type: cell-based; settings: Bacillus subtilis, ATCC6633; authentic sample, only trans isomers of chalcones; error reflects step size
Protocol: as §2

[5] = tested on: K. pneumoniae ATCC 4352; assay: MIC determination, species selectivity; assay type: cell-based; settings: Klebsiella pneumoniae, ATCC4352; authentic sample, only trans isomers of chalcones; error reflects step size
Protocol: as §2

[6] = tested on: S. aureus ATCC 10390; assay: MIC determination with authentic compounds resynthesized in solution; assay type: cell-based, Staphylococcus aureus; settings: Staphylococcus aureus, ATCC10390
Protocol: as §1
(§3) Dose response growth inhibition curves were determined for each active compound (resynthesized in solution) against S. aureus 10390 (SA) and methicillin-resistant S. aureus 33591 (MRSA). […] MIC assays were performed in quadruplicate.

[7] = tested on: Methicillin-resistant S. aureus ATCC 33591 (MRSA); assay: as above; assay type: cell-based; settings: Staphylococcus aureus; Table 3; authentic sample, only trans isomers of chalcones; error reflects step size in the serial dilutions
Protocol: as §1, §3

[8] = tested on: K. pneumoniae; assay: Agar overlay TTC assay, compound overlays; assay type: cell-based, Klebsiella pneumoniae; settings: 30 nanomole aliquots of purified compound on filter paper
[9] = tested on: S. aureus ATCC 10390; assay: Agar overlay TTC assay; assay type: cell-based, Staphylococcus aureus; settings: methicillin susceptibility disk 10 μg, agar overlay TTC assay, 18 h
Source text: To take advantage of the spatially-addressed nature of the macroarray format, an agar overlay assay was employed that utilizes TTC (triphenyl tetrazolium chloride) as a visualization agent (FIG. 2[…].; Lu, A. T.; Solas, D. W.; Gore, […].; Coffin, […].; Wang, […].; Look, G. C.; Campbell, […]. Antimicrob. Agents Chemother. 1998, 1447-1453. Unfortunately, during macroarray synthesis the planarity of the support is not fully maintained, and small wrinkles develop in this particular assay. This problem was solved by using an adaptation of the common Western Blot technique to copy the macroarray members from the support to fresh wrinkle-free sheets while maintaining the spatially-addressed nature. This transfer can be completed in 90 seconds and four copies can be made at a time, however to date, it is applicable only for smaller macroarrays (6 cm×6 cm, 16 spots). The full macroarray was easily divided into these dimensions. The copies allowed for replicates to be made, and the original, which cannot be used in the assay, is used to validate the compounds by LCMS. As an added feature, the sensitivity of the assay was tuned by simply changing the amount of agar applied to the array. The copies generated in the assay can also be easily used to screened against multiple organisms. […] This assay format also took advantage of the spatially addressed nature of the arrays (FIG. 2C). […]

[10] = Table 2, serial dilution of stock solutions obtained by SPOT-synthesis, read-out: estimated MIC range
[11] = Table 3, serial dilution of spot stock solutions of crude macroarray compounds, read-out: S. aureus Estimated MIC range
[12] = Table 2, authentic sample synthesized according to standard techniques, read-out: observed MIC
[13] = Table 3, authentic sample, only trans isomers of chalcones, error reflects step size in the serial dilutions, read-out: S. aureus MIC

Row | Structure (SMILES) | MIC [1, 10] [µM] | MIC [1, 11] [µM] | Zones of inhibition [2] [mm] | MIC [3] [µM] | MIC [4] [µM] | MIC [5] [µM] | MIC [6, 12] [µM] | MIC [6, 13] [µM] | MIC [7] [µM] | susceptibility in agar overlay TTC assay [8] | inhibition of S. aureus at the 12.5 μM level ([1]; 12.5 μM, macroarray stock solutions diluted four fold) | Zone of inhibition [9] [mm]
1 | O=C(/C=C/c1cccc(Cl)c1Cl)c1cccc(O)c1 [Compound 4Bl, 2,3-dichloro-3′-hydroxychalcone] | 12.5 to 25 (≈ 3.66 to 7.33 µg/mL) | 12.5 to 25 (≈ 3.66 to 7.33 µg/mL) | 19 | 12.5 ± 2.5 (≈ 3.66 µg/mL) | 22.5 ± 2.5 (≈ 6.6 µg/mL) | > 250 | 13.8 ± 1.2 (≈ 4.05 µg/mL) | 15 ± 0.5 (≈ 4.4 µg/mL) | 15 ± 0.5 (≈ 4.4 µg/mL) | weakly susceptible |  | 
2 | O=C(/C=C/c1c(Cl)ccc(Cl)c1Cl)c1cccc(O)c1 [Compound 4Bo, 3′-hydroxy-2,3,6-trichlorochalcone] | 6.25 to 12.5 (≈ 2.05 to 4.09 µg/mL) | < 12.5 |  | 12.5 ± 2.5 (≈ 4.09 µg/mL) | 8.8 ± 1.2 (≈ 2.88 µg/mL) | > 250 | 6.5 ± 0.5 (≈ 2.13 µg/mL) | 10 ± 1 (≈ 3.28 µg/mL) | 10 ± 1 (≈ 3.28 µg/mL) | weakly susceptible | complete inhibition | 
3 | COc1cccc(OC)c1C(=O)N[C@@H]1C(=O)N2[C@@H]1SC(C)(C)[C@@H]2C(=O)O [methicillin, reference compound] |  |  |  |  |  |  |  |  |  |  |  | 39

Source: patent publication US8227616B2, “Cyanopyridine antibacterial agents and methods of use thereof” (Wisconsin Alumni Research Foundation, priority 2006, dated 2012)
